According to patent publication US20260070919A1, “CRYSTAL FORM OF FIVE-MEMBERED AND SIX-MEMBERED HETEROCYCLIC COMPOUND, PREPARATION METHOD THEREFOR, AND USE THEREOF” (BEIJING MAXINOVEL PHARMACEUTICALS CO., LTD., priority 2022, published 2026):

How the values were obtained:
Assay type in all cases: physicochemical
[1] = Dynamic vapor sorption (DVS); settings: for weight gain from 0% RH to 95% RH (moisture absorption): 25° C., weight percentage
Procedure: (§1) A sample of crystal form I of the compound represented by formula 1 (10 mg) was weighed, and dried for 60 minutes at a temperature of 25° C. and a humidity of 0% RH. The moisture absorption characteristics of the sample were tested as the humidity changed from 0% RH to 95% RH, and the desorption characteristics of the sample were tested as the humidity changed from 95% RH to 0% RH. The humidity change in each step was 5% RH, with an equilibrium criterion of a weight change rate of less than 0.01%/min within 5 minutes and a maximum equilibration time of 2 hours.
as §1, with “II” for “I”
as §1, with “III” for “I”

[2] = Stability test (influencing factors and accelerated conditions; HPLC, appearance, XRPD, DSC)
Procedure: Appropriate amounts of crystal form II and crystal form III of the compound represented by formula 1 were accurately weighed into 20 mL colorless transparent glass vials, which were placed under corresponding influencing factors (high temperature at 60° C., high humidity of 92.5% RH) and accelerated conditions (40° C./75% RH) respectively. After 1 week and 2 weeks, the samples were removed for HPLC analysis to determine the content and related substances, thereby evaluating the chemical stability of crystal form II and crystal form III. The samples were also characterized by appearance, XRPD, and DSC to assess the physical stability of the two crystal forms. Additionally, samples of crystal form II and crystal form III were accurately weighed into 20 mL colorless transparent glass vials, which were tightly sealed and stored in a −20° C. freezer as standard samples for HPLC analysis.

[3] = XRPD re-characterization of the precipitated sample after days
Procedure: 20 mg of the compound represented by formula 1 was weighed into a glass vial, which was placed in a 50° C. water bath with a rotational speed of 400 rpm. 90 times the volume of ethyl acetate as good solvent was added to the vial, and the mixture was heated to obtain a clarified solution, which was maintained at the same temperature for 15 minutes. 70 times the volume of n-heptane as anti-solvent was slowly added dropwise thereto under stirring to precipitate a solid, and the mixture was stirred for another 10 minutes. A sample was taken and centrifuged, naturally dried, and characterized by XRPD as crystal form II.
Following the same operational procedure as in method 3, crystal form II was also obtained by using the good solvent and anti-solvent listed in the table below.
Method: An appropriate amount of sample was taken and spread evenly on a single-crystal silicon wafer, and XRPD testing was conducted at room temperature. The specific experimental parameters were as follows: the light source was CuKα, the X-ray intensity was 40 kV/40 mA, the scanning mode was Theta-theta, the scanning angle range was 4° to 40°, the step size was 0.05°, and the scanning speed was 0.5 seconds per step.

[4] = after 2 weeks under −20° C., high temperature, high humidity, light, and accelerated conditions

| weight gain from 0% RH to 95% RH (moisture absorption) [1] [%] | Appearance ([2]; Accelerated (40° C./75%)) | Appearance ([2]; High humidity (92.5% RH)) | Appearance ([2]; High temperature (60° C.)) | chemical stability [2, 4] | Appearance ([2]; control group, −20° C.) | crystal form by XRPD after standing ([3]; after 6 days, good solvent / methyl tert-butyl ether) | crystal form by XRPD after standing ([3]; after 8 days, ethyl acetate / n-heptane) | hygroscopicity (in words) ([1]; 0% RH to 95% RH) | physicochemical stability ([2]; −20° C., high temperature, high humidity, and accelerated conditions) | SMILES | physical stability (crystal form conversion) [2, 4] |
| --- | --- | --- | --- | --- | --- | --- | --- | --- | --- | --- | --- |
| 0.4084 | Bright yellow | Bright yellow | Bright yellow | good chemical stability | Bright yellow | – | – | – | – | CCS(=O)(=O)N1CC(CC#N)(n2cc(-c3nc(Nc4cnn(C)c4)nc4ccsc34)cn2)C1 [Crystal form III] | partial conversion of crystal form III to crystal form II |
| 0.1047 | Yellow | Yellow | Yellow | – | Yellow | remained as crystal form II | remained as crystal form II | almost no hygroscopicity | good physicochemical stability | CCS(=O)(=O)N1CC(CC#N)(n2cc(-c3nc(Nc4cnn(C)c4)nc4ccsc34)cn2)C1 [Crystal form II] | – |
| 3.025 | – | – | – | – | – | – | – | – | – | CCS(=O)(=O)N1CC(CC#N)(n2cc(-c3nc(Nc4cnn(C)c4)nc4ccsc34)cn2)C1 [Crystal form I] | – |
